Earlier results, collected in patent US8735360B2 (priority 2009, dated 2014).
Positions of bridges follow the written chain, without caps; N, C: chain ends. Residues, ends and D or L forms follow the SMILES beside them.

Settings: oral administration at therapeutic dose levels; cited from earlier work

C[C@@H]1NC(=O)[C@@H]2CCCN2C(=O)[C@H](CC(N)=O)NC(=O)[C@@H]2CSSC[C@H](N)C(=O)N[C@H]3CSSC[C@H](NC1=O)C(=O)N[C@@H]([C@@H](C)O)C(=O)NCC(=O)N[C@H](C(=O)N[C@@H](Cc1ccc(O)cc1)C(=O)O)CSSC[C@H](NC(=O)[C@H](Cc1ccc(O)cc1)NC(=O)[C@H](CCC(=O)O)NC3=O)C(=O)N2 [linaclotide, Linaclotide] (H-CCEYCCNPACTGCY-OH; disulfide 1-6, 2-10, 5-13)
Levels seen systemically after oral administration: no detectable levels
